These results are taken from ChEMBL document CHEMBL1201862, “PubChem BioAssay data set” (2004).

Molecules are shown by their SMILES.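 48-hour exposure; five concentrations; linearly interpolated endpoints. Abbreviation: GI50, concentration required for 50% inhibition of growth.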 The source made the active and inactive calls. Rule as the data show it: active = GI50 up to about 1.1 µM and inactive = higher. A value given as a limit tells only on which side of the number the result lay.

Test systems include LOX IMVI; TK-10; HCT-15; CAKI-1; PC-3; SK-OV-3; MDA-MB-435; OVCAR-8; IGROV-1; NCI/ADR-RES; RXF 393; OVCAR-3; CCRF-CEM; SNB-19; MOLT-4; UO-31; SK-MEL-28; COLO 205; 786-0; SNB-75.
Common to all, as to assay: DTP human tumour cell line panel, 48 h

Turning to `COC(=O)C1=C(C(=O)OC)SC2(S1)C1=C(CCCC1)SC(C(=O)OC)=C2C(=O)OC`, the GI50 was 2.83 µM (inactive) in the experiment on LOX IMVI; 10.9 µM (inactive) in the experiment on TK-10; 4.39 µM in the experiment on HCT-15; 4.06 µM (inactive) in the experiment with CAKI-1; 5.02 µM (inactive) with PC-3; 14.9 µM (inactive) in the experiment with SK-OV-3. Besides, the GI50 in the experiment with MDA-MB-435 was 2.81 µM (inactive); in the experiment on OVCAR-8 it was 6.32 µM (inactive); in the experiment with IGROV-1, 8.32 µM (inactive); with NCI/ADR-RES, 17.9 µM (inactive); in the experiment on RXF 393, 2.33 µM (inactive); in the experiment on OVCAR-3, 6.89 µM (inactive). Moreover, the GI50 with CCRF-CEM is 1.7 µM (inactive); in the experiment with SNB-19, 14.5 µM (inactive); in the experiment with MOLT-4, 1.93 µM (inactive); in the experiment on UO-31, 4.58 µM (inactive); with SK-MEL-28 it was 9.29 µM (inactive); in the experiment on COLO 205, 9.25 µM (inactive).
With `O=CC1OC(=O)c2cc(O)c(O)c(O)c2-c2c(cc(O)c(O)c2O)C(=O)OC1C(O)C(O)CO` (stereo unspecified), the GI50 was 15.4 µM (inactive) in the experiment with LOX IMVI; 19.5 µM (inactive) in the experiment on TK-10; 69.2 µM with HCT-15; > 100 µM (inactive) with 786-0; 19.1 µM (inactive) in the experiment with CAKI-1; 16.2 µM (inactive) in the experiment on PC-3. For the same molecule, the GI50 in the experiment with MDA-MB-435 was 18.3 µM (inactive); in the experiment on OVCAR-8, 19.8 µM (inactive); in the experiment with IGROV-1, > 100 µM (inactive); in the experiment on NCI/ADR-RES, 76.9 µM (inactive); in the experiment on RXF 393, > 100 µM (inactive); in the experiment on OVCAR-3, 71 µM (inactive). The GI50 in the experiment with CCRF-CEM was 38.8 µM (inactive); in the experiment on SNB-19, > 100 µM (inactive); in the experiment with SNB-75 it was > 100 µM (inactive); in the experiment with MOLT-4 it was 22.9 µM (inactive); with UO-31, > 100 µM (inactive); in the experiment with SK-MEL-28, 83.4 µM (inactive). Also, the GI50 with COLO 205 was 45.5 µM (inactive).
For `CO/N=C(/C)c1cccc(Nc2nc3ccc(Cl)cc3c3[nH]c4ccccc4c23)c1`, the GI50 was 11.2 µM (inactive) with LOX IMVI; 9.73 µM with HCT-15; 6.79 µM (inactive) with 786-0; 10.4 µM (inactive) with CAKI-1; 14 µM (inactive) in the experiment on PC-3; 21.8 µM (inactive) in the experiment on SK-OV-3. The GI50 was 8.57 µM (inactive) with MDA-MB-435; 8 µM (inactive) with OVCAR-8; 10.6 µM (inactive) in the experiment with IGROV-1; 14.3 µM (inactive) in the experiment with NCI/ADR-RES; 1.52 µM (inactive) in the experiment on RXF 393; 4.62 µM (inactive) in the experiment with OVCAR-3. In addition, the GI50 in the experiment on CCRF-CEM was 23 µM (inactive); in the experiment on SNB-19, 15 µM (inactive); with MOLT-4, 5.13 µM (inactive); in the experiment with UO-31, 9.46 µM (inactive); in the experiment with COLO 205 it was 5.87 µM (inactive).
Take `COC(=O)[C@]12CC[C@H]3CN(S(=O)(=O)c4ccc(C)cc4)[C@H]([C@H]31)[C@H](c1ccco1)N2S(=O)(=O)c1ccc(C)cc1`: the GI50 in the experiment with LOX IMVI is 34.7 µM (inactive); with TK-10 it was 56.5 µM (inactive); in the experiment with HCT-15, 34 µM; with 786-0, 59.7 µM (inactive); in the experiment on CAKI-1 it was 38.1 µM (inactive); with PC-3, 28.8 µM (inactive). Further, the GI50 was > 100 µM (inactive) in the experiment with SK-OV-3; 22.9 µM (inactive) with MDA-MB-435; 27.8 µM (inactive) with OVCAR-8; 35.8 µM (inactive) in the experiment on IGROV-1; 29 µM (inactive) in the experiment on NCI/ADR-RES; 16.8 µM (inactive) in the experiment on RXF 393. Besides, the GI50 in the experiment on OVCAR-3 was 56.2 µM (inactive); in the experiment on CCRF-CEM, 45.3 µM (inactive); with SNB-19, > 100 µM (inactive); with MOLT-4 it was 31.1 µM (inactive); in the experiment on UO-31 it was 29.3 µM (inactive); with SK-MEL-28, 51.4 µM (inactive). Further, the GI50 in the experiment on COLO 205 is 20.5 µM (inactive).
Consider `CC1=NN=C(N)N/C1=C/C(Sc1ccc(Cl)cc1)c1cccs1` (stereo unspecified), for which the GI50 with LOX IMVI was 16.7 µM (inactive); in the experiment on TK-10, 36.2 µM (inactive); with HCT-15, 6.12 µM; in the experiment with 786-0 it was 18.5 µM (inactive); with CAKI-1, 15.7 µM (inactive); in the experiment with PC-3, 12.8 µM (inactive). For the same molecule, the GI50 in the experiment on SK-OV-3 was 12 µM (inactive); with MDA-MB-435, 13.3 µM (inactive); with OVCAR-8, 16 µM (inactive); with IGROV-1, 11.4 µM (inactive); in the experiment with NCI/ADR-RES, 18.5 µM (inactive); in the experiment on RXF 393, 17.4 µM (inactive). Besides, the GI50 was 3.52 µM (inactive) with CCRF-CEM; 16.7 µM (inactive) with SNB-19; 13.6 µM (inactive) in the experiment with MOLT-4; 4.45 µM (inactive) in the experiment on UO-31; 17.5 µM (inactive) with SK-MEL-28; 22.1 µM (inactive) in the experiment with COLO 205.
`COC(=O)[C@@H]1CN(C(=O)c2ccccc2)C(=O)N1`: the GI50 in the experiment on LOX IMVI is > 100 µM (inactive); with TK-10 it was > 100 µM (inactive); in the experiment on 786-0 it was > 100 µM (inactive); with CAKI-1 it was > 10 µM (inactive); in the experiment on PC-3, > 100 µM (inactive); with MDA-MB-435 it was > 100 µM (inactive). In addition, the GI50 in the experiment with OVCAR-8, with IGROV-1, in the experiment on NCI/ADR-RES, in the experiment with RXF 393, with OVCAR-3 and in the experiment with CCRF-CEM was > 100 µM (inactive) throughout. The GI50 with SNB-19 was > 100 µM (inactive); in the experiment with SNB-75, > 100 µM (inactive); with MOLT-4, > 100 µM (inactive); with UO-31, 69.7 µM (inactive); with SK-MEL-28, > 100 µM (inactive).
Take `O=c1oc2cc(O)ccc2cc1-c1nc2ccccc2o1`: the GI50 in the experiment with LOX IMVI was 44.4 µM (inactive); with TK-10, 37 µM (inactive); with HCT-15, 34.4 µM; in the experiment with 786-0 it was 30.5 µM (inactive); in the experiment on CAKI-1, 44 µM (inactive); in the experiment on PC-3, 42.4 µM (inactive). Also, the GI50 in the experiment with MDA-MB-435 is 28.2 µM (inactive); in the experiment with OVCAR-8, 34.8 µM (inactive); in the experiment on IGROV-1 it was 29.1 µM (inactive); in the experiment with NCI/ADR-RES it was 36.4 µM (inactive); with RXF 393, < 0.01 µM (active); in the experiment on OVCAR-3 it was 19.1 µM (inactive). Moreover, the GI50 in the experiment with CCRF-CEM is 8.87 µM (inactive); in the experiment with SNB-19, 29.1 µM (inactive); with SNB-75 it was 63.8 µM (inactive); in the experiment on MOLT-4 it was 24.7 µM (inactive); with UO-31, 26.9 µM (inactive); with SK-MEL-28, 43.5 µM (inactive). In addition, in the experiment with COLO 205, the GI50 was 30.8 µM (inactive).
Turning to `Nc1ncc(Cc2ccc3c(c2)OCO3)c(N)n1`, the GI50 in the experiment on LOX IMVI is > 100 µM (inactive); in the experiment on TK-10 it was > 100 µM (inactive); with HCT-15, more than 100 µM; in the experiment with 786-0, > 100 µM (inactive); with CAKI-1 it was > 100 µM (inactive); with PC-3 it was > 100 µM (inactive). For the same molecule, the GI50 in the experiment with SK-OV-3, in the experiment on MDA-MB-435, in the experiment with OVCAR-8, in the experiment with IGROV-1, in the experiment on NCI/ADR-RES and in the experiment with RXF 393 was > 100 µM (inactive) each time. For the same molecule, the GI50 in the experiment with OVCAR-3, in the experiment with CCRF-CEM, in the experiment on SNB-19, in the experiment on MOLT-4, with UO-31 and in the experiment with SK-MEL-28 was > 100 µM (inactive) in each case. Moreover, the GI50 in the experiment on COLO 205 was > 100 µM (inactive).

What is called GI50 is the concentration giving 50% growth inhibition.
